Measurements as given in article PMC5399447, “Neuroprotective pentapeptide CN-105 is associated with reduced sterile inflammation and improved functional outcomes in a traumatic brain injury murine model” (Scientific Reports, 2017).

System: 84 genes related to inflammatory and autoimmune processes
Assay: Mouse Inflammatory Response and Autoimmunity PCR Array, whole brain
Format: in vivo
Method: Frozen, pulverized whole brain tissue was processed for RNA extraction from a separate cohort of treated and untreated injured animals on days 1 post-injury(CN-105, n = 4; vehicle, n = 3; Control(sham-operated), n = 3). Total RNA was extracted from frozen, pulverized whole brain tissue using RNeasy Lipid Tissue Mini Kit(Qiagen, Valencia, CA). RNA quantity and quality was assessed with the NanoDrop ND-1000 spectrophotometer(NanoDrop Technologies, Inc., Wilmington, DE) and by agarose gel electrophoresis. Only samples with a 260/280 ratio between 1.9–2.1, and a 260/230 ratio greater than 2.0, were further processed. First strand complementary DNA(cDNA) was generated from 2 μg total RNA using the RT[2] First strand kit(SABiosciences, Frederick, MD.)
Gene expression was measured using the Mouse Inflammatory Response and Autoimmunity PCR Array(SABiosciences, Frederick, MD), which profiles the expression of 84 genes related to inflammatory and autoimmune processes. RT-PCR was performed according to manufacturer’s instructions Quality of the cDNA and PCR efficiency was verified by housekeeping genes and RT-PCR controls included in the PCR Array.
Raw RT-PCR data were analyzed using the Web-Based PCR Array Data Analysis software(SABiosciences). ΔCt values and ΔΔCt - based fold-change were calculated from raw threshold cycle data, using beta-actin and glyceraldehyde 3-phosphate dehydrogenase(GAPDH) as internal standards for normalization. Fold changes were then normalized against sham-operated controls.

[1] = TBI + CN-105 0.05 mg/kg iv 2 h post injury, brain 24 h
[2] = TBI CN-105 vs TBI vehicle, brain 24 h post TBI
[3] = TBI CN-105 vs sham vehicle, brain 24 h

## Ac-VSRRR-amide [CN-105]
[1]
  Bcl6 ΔCt value, TBI-CN-105: 5.7E − 01
  C3ar1 ΔCt value, TBI-CN-105: 1.2E − 01
  C3 ΔCt value, TBI-CN-105: 1.9E − 03
  C4b ΔCt value, TBI-CN-105: 5.9E − 01
  Ccl1 ΔCt value, TBI-CN-105: 9.1E − 01
  Ccl2 ΔCt value, TBI-CN-105: 2.5E − 02
  Ccl3 ΔCt value, TBI-CN-105: 8.9E − 03
  Ccl4 ΔCt value, TBI-CN-105: 1.2E − 02
  Ccl5 ΔCt value, TBI-CN-105: 3.4E − 03
  Ccl7 ΔCt value, TBI-CN-105: 3.7E − 03
  Ccl8 ΔCt value, TBI-CN-105: 4.2E − 03
  Ccl11 ΔCt value, TBI-CN-105: 1.8E − 01
  Ccl12 ΔCt value, TBI-CN-105: 1.3E − 02
  Ccl17 ΔCt value, TBI-CN-105: 1.0E − 03
  Ccl19 ΔCt value, TBI-CN-105: 3.4E − 03
  Ccl20 ΔCt value, TBI-CN-105: 7.9E − 02
  Ccl22 ΔCt value, TBI-CN-105: 2.2E − 02
  Ccl24 ΔCt value, TBI-CN-105: 5.1E − 03
  Ccl25 ΔCt value, TBI-CN-105: 9.5E − 02
  Ccr1 ΔCt value, TBI-CN-105: 3.0E − 04
  Ccr2 ΔCt value, TBI-CN-105: 1.5E − 03
  Ccr3 ΔCt value, TBI-CN-105: 1.1E − 01
  Ccr4 ΔCt value, TBI-CN-105: 3.1E − 02
  Ccr7 ΔCt value, TBI-CN-105: 3.4E − 02
  Cd40lg ΔCt value, TBI-CN-105: 4.2E − 03
  Cd40 ΔCt value, TBI-CN-105: 2.1E − 02
  Cebpb ΔCt value, TBI-CN-105: 2.4E − 01
  Crp ΔCt value, TBI-CN-105: 7.1E − 04
  Csf1 ΔCt value, TBI-CN-105: 1.2E − 02
  Cxcl1 ΔCt value, TBI-CN-105: 1.8E − 03
  Cxcl2 ΔCt value, TBI-CN-105: 1.7E − 03
  Cxcl3 ΔCt value, TBI-CN-105: 1.6E + 00
  Cxcl5 ΔCt value, TBI-CN-105: 1.4E + 00
  Cxcl9 ΔCt value, TBI-CN-105: 2.2E − 03
  Cxcl10 ΔCt value, TBI-CN-105: 5.3E − 04
  Cxcl11 ΔCt value, TBI-CN-105: 8.8E − 03
  Cxcr4 ΔCt value, TBI-CN-105: 9.0E − 02
  Fasl ΔCt value, TBI-CN-105: 6.7E − 04
  Flt3l ΔCt value, TBI-CN-105: 7.1E − 04
  Fos ΔCt value, TBI-CN-105: 1.7E − 01
  Hdac4 ΔCt value, TBI-CN-105: 8.3E − 01
  Ifng ΔCt value, TBI-CN-105: 4.3E − 03
  Il1a ΔCt value, TBI-CN-105: 5.4E − 02
  Il1b ΔCt value, TBI-CN-105: 4.6E − 01
  Il1f10 ΔCt value, TBI-CN-105: 5.5E − 03
  Il1r1 ΔCt value, TBI-CN-105: 7.5E − 04
  Il1rap ΔCt value, TBI-CN-105: 8.2E − 04
  Il1rn ΔCt value, TBI-CN-105: 1.7E − 03
  Il6ra ΔCt value, TBI-CN-105: 1.6E − 01
  Il6 ΔCt value, TBI-CN-105: 1.8E − 03
  Il7 ΔCt value, TBI-CN-105: 5.9E − 01
  Il8ra ΔCt value, TBI-CN-105: 2.6E − 03
  Il8rb ΔCt value, TBI-CN-105: 5.4E − 03
  Il9 ΔCt value, TBI-CN-105: 1.4E − 02
  Il10rb ΔCt value, TBI-CN-105: 2.2E − 02
  Il10 ΔCt value, TBI-CN-105: 1.6E − 03
  Il18rap ΔCt value, TBI-CN-105: 6.6E − 03
  Il18 ΔCt value, TBI-CN-105: 9.6E − 03
  Il22ra2 ΔCt value, TBI-CN-105: 8.2E − 02
  Il22 ΔCt value, TBI-CN-105: 3.4E − 03
  Il23a ΔCt value, TBI-CN-105: 2.3E − 02
  Il23r ΔCt value, TBI-CN-105: 8.0E − 04
  Itgb2 ΔCt value, TBI-CN-105: 5.3E − 02
  Kng1 ΔCt value, TBI-CN-105: 8.5E − 03
  Lta ΔCt value, TBI-CN-105: 1.1E − 01
  Ltb ΔCt value, TBI-CN-105: 3.9E − 02
  Ly96 ΔCt value, TBI-CN-105: 7.7E − 02
  Myd88 ΔCt value, TBI-CN-105: 6.6E − 03
  Nfatc3 ΔCt value, TBI-CN-105: 3.2E + 00
  Nfkb1 ΔCt value, TBI-CN-105: 5.3E − 03
  Nos2 ΔCt value, TBI-CN-105: 1.6E − 01
  Nr3c1 ΔCt value, TBI-CN-105: 1.2E − 02
  Ripk2 ΔCt value, TBI-CN-105: 2.1E − 01
  Tirap ΔCt value, TBI-CN-105: 5.3E − 02
  Tlr1 ΔCt value, TBI-CN-105: 7.4E − 03
  Tlr2 ΔCt value, TBI-CN-105: 9.1E − 03
  Tlr3 ΔCt value, TBI-CN-105: 5.8E − 02
  Tlr4 ΔCt value, TBI-CN-105: 2.0E − 02
  Tlr5 ΔCt value, TBI-CN-105: 1.7E − 03
  Tlr6 ΔCt value, TBI-CN-105: 7.0E − 03
  Tlr7 ΔCt value, TBI-CN-105: 9.1E − 01
  Tnf ΔCt value, TBI-CN-105: 3.8E − 02
  Tnfsf14 ΔCt value, TBI-CN-105: 9.0E − 03
  Tollip ΔCt value, TBI-CN-105: 5.1E − 02
[2]
  Bcl6 Fold Change: 921
  C3 Fold Change: 1.5
  C3ar1 Fold Change: −3.1
  C4b Fold Change: −1.1
  Ccl1 Fold Change: 1.5
  Ccl2 Fold Change: −2.6
  Ccl3 Fold Change: 1.5
  Ccl4 Fold Change: −2.6
  Ccl5 Fold Change: −1.6
  Ccl7 Fold Change: −1.2
  Ccl8 Fold Change: 31.2
  Ccl11 Fold Change: −3.6
  Ccl12 Fold Change: 64.2
  Ccl17 Fold Change: −1.7
  Ccl19 Fold Change: −5.2
  Ccl20 Fold Change: −1.5
  Ccl22 Fold Change: 60.2
  Ccl24 Fold Change: −14.8
  Ccl25 Fold Change: −1.2
  Ccr1 Fold Change: 2.3
  Ccr2 Fold Change: −48.3
  Ccr3 Fold Change: 5.4
  Ccr4 Fold Change: 1.2
  Ccr7 Fold Change: 1.2
  Cd40 Fold Change: −7.8
  Cd40lg Fold Change: −1.2
  Cebpb Fold Change: −1.5
  Crp Fold Change: 1.2
  Csf1 Fold Change: −2.0
  Cxcl1 Fold Change: −8.3
  Cxcl2 Fold Change: 4.8
  Cxcl3 Fold Change: 2.4
  Cxcl5 Fold Change: 6257
  Cxcl9 Fold Change: −70.3
  Cxcl10 Fold Change: −47.9
  Cxcl11 Fold Change: 2.6
  Cxcr4 Fold Change: −7.3
  Fasl Fold Change: −2.0
  Flt3l Fold Change: −1.4
  Fos Fold Change: −1.2
  Hdac4 Fold Change: −1.1
  Ifng Fold Change: −12.9
  Il1a Fold Change: −10.1
  Il1b Fold Change: −1.6
  Il1f10 Fold Change: 3.8
  Il1r1 Fold Change: 3.5
  Il1rap Fold Change: −2.2
  Il1rn Fold Change: −1.6
  Il6 Fold Change: −29.8
  Il6ra Fold Change: −2.9
  Il7 Fold Change: 515
  Il8ra Fold Change: 1.2
  Il8rb Fold Change: 1.1
  Il9 Fold Change: 1.2
  Il10 Fold Change: −9.3
  Il10rb Fold Change: 2.6
  Il18 Fold Change: 7.2
  Il18rap Fold Change: −3.6
  Il22 Fold Change: −1.7
  Il22ra2 Fold Change: 10895
  Il23a Fold Change: 18.5
  Il23r Fold Change: 5.8
  Itgb2 Fold Change: −1.5
  Kng1 Fold Change: −1.1
  Lta Fold Change: −1.2
  Ltb Fold Change: 3.6
  Ly96 Fold Change: 61.2
  Myd88 Fold Change: −273
  Nfatc3 Fold Change: 10044
  Nfkb1 Fold Change: −16.6
  Nr3c1 Fold Change: 13.7
  Ripk2 Fold Change: −1.1
  Tirap Fold Change: −1.5
  Tlr1 Fold Change: −1.4
  Tlr2 Fold Change: 1.0
  Tlr3 Fold Change: 1.3
  Tlr4 Fold Change: −9.0
  Tlr5 Fold Change: 2.5
  Tlr6 Fold Change: −170
  Tlr7 Fold Change: 19.0
  Tnf Fold Change: 6.9
  Tnfsf14 Fold Change: −2.8
  Tollip Fold Change: −2.9
[3]
  Bcl6 fold change TBI-CN-105/S-v: 11.2
  C3ar1 fold change TBI-CN-105/S-v: 34.9
  C3 fold change TBI-CN-105/S-v: 4.6
  C4b fold change TBI-CN-105/S-v: 163.3
  Ccl2 fold change TBI-CN-105/S-v: 42.3
  Ccl3 fold change TBI-CN-105/S-v: 17.7
  Ccl4 fold change TBI-CN-105/S-v: 32.3
  Ccl5 fold change TBI-CN-105/S-v: 3.8
  Ccl7 fold change TBI-CN-105/S-v: 2.9
  Ccl8 fold change TBI-CN-105/S-v: 5.6
  Ccl11 fold change TBI-CN-105/S-v: 2253.1
  Ccl12 fold change TBI-CN-105/S-v: 3.7
  Ccl17 fold change TBI-CN-105/S-v: −2.6
  Ccl19 fold change TBI-CN-105/S-v: −5.8
  Ccl20 fold change TBI-CN-105/S-v: 3086.8
  Ccl22 fold change TBI-CN-105/S-v: 176.2
  Ccl24 fold change TBI-CN-105/S-v: 159.1
  Ccl25 fold change TBI-CN-105/S-v: 16.9
  Ccr1 fold change TBI-CN-105/S-v: −2.5
  Ccr2 fold change TBI-CN-105/S-v: 5.6
  Ccr3 fold change TBI-CN-105/S-v: 66.6
  Ccr4 fold change TBI-CN-105/S-v: 7945.9
  Ccr7 fold change TBI-CN-105/S-v: 283.2
  Cd40 fold change TBI-CN-105/S-v: 38.8
  Cebpb fold change TBI-CN-105/S-v: 3.5
  Csf1 fold change TBI-CN-105/S-v: 1.1
  Cxcl1 fold change TBI-CN-105/S-v: 29.4
  Cxcl2 fold change TBI-CN-105/S-v: 25.5
  Cxcl3 fold change TBI-CN-105/S-v: 54032.0
  Cxcl5 fold change TBI-CN-105/S-v: 957.4
  Cxcl9 fold change TBI-CN-105/S-v: 32.2
  Cxcl10 fold change TBI-CN-105/S-v: −1.7
  Cxcl11 fold change TBI-CN-105/S-v: 372.3
  Cxcr4 fold change TBI-CN-105/S-v: 21.0
  Fasl fold change TBI-CN-105/S-v: 3.2
  Flt3l fold change TBI-CN-105/S-v: −2.8
